Source: patent US11541006B2, “Aqueous formulation for insoluble drugs” (priority 2018, dated 2023)
≈ marks a conversion by molar mass, not a printed value. Where a name gives a salt, the structure may show the parent alone.

Columns and labels:
[1] = cited from earlier work; for Solubility according to USP definition: in water
[2] = Solubility of insoluble drugs in F96 LMBW vehicle (Example 4); format: physicochemical; conditions: for solubility: aqueous with cosolvent or surfactant or cyclodextrin, thermodynamic from solid
Description: Twenty-two (22) insoluble drugs having a wide variety of chemical structures (including chemical element, small molecule, peptide and protein), properties and biological activities (including drugs, diagnostic agents and nutritional supplement agents) were selected and tested for solubility in F96 LMBW vehicle as follows: • 1. Measure out a fixed amount of F96 vehicle. • 2. Add a known amount of an insoluble drug substance. • 3. Mix to dissolve the drug substance. • 4. […] Record the maximum amount of the insoluble drug substance that the F96 LMBW vehicle could dissolve and use this value to calculate the drug's solubility in the F96 LMBW vehicle.

[3] = Solubility of insoluble drugs in 16% SBECD aqueous solution (Example 27); conditions: for solubility: 16% SBECD aqueous solution, aqueous with cosolvent or surfactant or cyclodextrin, thermodynamic from solid; for Measured solubility in 16% SBECD: 16% sulfobutyl ether beta cyclodextrin aqueous solution
Description: Add a known amount of an insoluble drug substance. • 3. Mix to dissolve the drug substance. • 4.

[4] = physchem; conditions: for Appearance of the undiluted solutions / Appearance of the solutions after being diluted in an IV infusion fluid: RT, 24 hours; for Appearance of the solutions after being diluted in an IV infusion fluid: diluted to about 0.5 to 5 mg/mL
Description: Different amounts of voriconazole (20 to 60 mg/mL) were first dissolved in F145V and subsequently diluted in an IV infusion fluid, such as normal saline (NS), 5% dextrose in water (D5W), water for injection (WFI), or Lactated Ringers solution, to a final voriconazole concentration of about 0.5 to 5 mg/mL.

[5] = Voriconazole solubility in LMBW versus binary/ternary mixtures of L, M, B and alcohol (Example 2); format: physicochemical; conditions: thermodynamic from solid
Description: For this study, voriconazole was used as the insoluble drug.
To determine solubility in each combination, voriconazole was added to each combination and mixed until it no longer would dissolve. For each mixture, the pH was adjusted to pH 4.5-5, equilibrated at room temperature, and then passed through a 0.2-micron filter. The filtrate was analyzed by HPLC for voriconazole concentration. Each HPLC-determined voriconazole concentration is noted as a “Voriconazole solubility” in the tables below.

[6] = Voriconazole stability versus pH and predicted F96 shelf life T90 (separate study); format: physicochemical
[7] = Solubility of disease-related insoluble solids in LMBW vehicle and PBS (Example 29); format: physicochemical; conditions: for solubility: thermodynamic from solid
Description: These solids have very low solubility in the body fluids and therefore they have a high tendency to precipitate and to form the undesirable solid deposits in vivo. […] Weigh out a fixed amount of a solid of interest, • 2. […] Mix to dissolve the solid, • 4. If the solid has completely dissolved, add more until it is no longer dissolving in the vehicle • 5.

Compound: CC(=O)O[C@H]1C(=O)[C@@]2(C)[C@H]([C@H](OC(=O)c3ccccc3)[C@]3(O)C[C@H](OC(=O)[C@H](O)[C@@H](NC(=O)c4ccccc4)c4ccccc4)C(C)=C1C3(C)C)[C@]1(OC(C)=O)CO[C@@H]1C[C@@H]2O [Paclitaxel]
- Solubility according to USP definition [1]: Insoluble
- Reported solubility in water ([1]; water): <0.0001 mg/mL

Compound: CC(C)Cc1ccc(C(C)C(=O)O)cc1 (centres unmarked) [Ibuprofen]
- Solubility according to USP definition [1]: Sparingly
- solubility [2]: 53100 µg/mL (≈ 257 mM)
- solubility [3]: 3580 µg/mL (≈ 17.4 mM)

Compound: CCc1c2c(nc3ccc(OC(=O)N4CCC(N5CCCCC5)CC4)cc13)-c1cc3c(c(=O)n1C2)COC(=O)[C@]3(O)CC [Irinotecan HCl]
- Solubility according to USP definition [1]: Insoluble
- Reported solubility in water ([1]; water): <0.0001 mg/mL
- solubility [2]: 20400 µg/mL
- solubility [3]: 2120 µg/mL

Compound: CC1=C(C/C=C(\C)CCC[C@H](C)CCC[C@H](C)CCCC(C)C)C(=O)c2ccccc2C1=O [Phytonadione]
- Solubility according to USP definition [1]: Insoluble
- Reported solubility in water ([1]; water): <0.0001 mg/mL
- solubility [2]: 28200 µg/mL (≈ 62.6 mM)
- solubility [3]: 150 µg/mL (≈ 0.333 mM)

Compound: C[C@@H](c1ncncc1F)[C@](O)(Cn1cncn1)c1ccc(F)cc1F [Voriconazole]
- Solubility increase over water [4]: 86 folds
- Appearance of the undiluted solutions ([4]; 20 mg/mL added to F145V): Clear & one-phase solution
- Appearance of the solutions after being diluted in an IV infusion fluid ([4]; 20 mg/mL in F145V): Clear & one-phase solution
- Appearance of the undiluted solutions ([4]; 30 mg/mL added to F145V): Clear & one-phase solution
- Appearance of the solutions after being diluted in an IV infusion fluid ([4]; 30 mg/mL in F145V): Clear & one-phase solution
- Appearance of the undiluted solutions ([4]; 40 mg/mL added to F145V): Clear & one-phase solution
- Appearance of the solutions after being diluted in an IV infusion fluid ([4]; 40 mg/mL in F145V): Slight precipitation
- Appearance of the undiluted solutions ([4]; 50 mg/mL added to F145V): Clear & one-phase solution
- Appearance of the solutions after being diluted in an IV infusion fluid ([4]; 50 mg/mL in F145V): Major precipitation
- Appearance of the undiluted solutions ([4]; 60 mg/mL added to F145V): Clear & one-phase solution
- Appearance of the solutions after being diluted in an IV infusion fluid ([4]; 60 mg/mL in F145V): Major precipitation
- solubility at 24 h ([4]; aqueous with cosolvent or surfactant or cyclodextrin): ≥ 60000 µg/mL
- Solubility according to USP definition [1]: Insoluble
- Solubility in water ([1]; water, 25° C.): about 0.7 mg/mL
- Reported solubility in water ([1]; water): 0.7 mg/mL
- solubility ([5]; LMBW (lecithin, MCT, bile acid, alcohols in water), pH 4.5, aqueous with cosolvent or surfactant or cyclodextrin): 29400 µg/mL
- solubility ([5]; MCT and alcohols in water), aqueous with cosolvent or surfactant or cyclodextrin, vehicle % wt in water: glycocholic acid 10.6, MCT 15, benzyl alcohol 4.5, ethanol 6.5, emulsion, opaque, pH 4.5-5, RT): 8000 µg/mL
- solubility ([5]; MCT and alcohols in water), aqueous with cosolvent or surfactant or cyclodextrin, vehicle % wt in water: lecithin 25, MCT 15, benzyl alcohol 4.5, ethanol 6.5, emulsion, opaque, pH 4.5-5, RT): 19800 µg/mL
- solubility ([5]; alcohol solution (benzyl alcohol and ethanol in water), pH 4.5, aqueous with cosolvent or surfactant or cyclodextrin): 1100 µg/mL
- solubility ([5]; aqueous with cosolvent or surfactant or cyclodextrin, vehicle % wt in water: MCT 15, emulsion, opaque, pH 4.5-5, RT): 500 µg/mL
- solubility ([5]; aqueous with cosolvent or surfactant or cyclodextrin, vehicle % wt in water: glycocholic acid 10.6, micelle solution, hazy, pH 4.5-5, RT): 2100 µg/mL
- solubility ([5]; aqueous with cosolvent or surfactant or cyclodextrin, vehicle % wt in water: lecithin 25, glycocholic acid 10.6, benzyl alcohol 4.5, ethanol 6.5, micelle solution, hazy, pH 4.5-5, RT): 8000 µg/mL
- solubility ([5]; aqueous with cosolvent or surfactant or cyclodextrin, vehicle % wt in water: lecithin 25, liposome, hazy, pH 4.5-5, RT): 800 µg/mL
- solubility ([5]; emulsion (MCT and alcohols in water), aqueous with cosolvent or surfactant or cyclodextrin, vehicle % wt in water: MCT 15, benzyl alcohol 4.5, ethanol 6.5, emulsion, opaque, pH 4.5-5, RT): 19400 µg/mL
- solubility ([5]; emulsion (glycocholic acid and MCT in water), aqueous with cosolvent or surfactant or cyclodextrin, vehicle % wt in water: glycocholic acid 10.6, MCT 15, emulsion, opaque, pH 4.5-5, RT): 3100 µg/mL
- solubility ([5]; emulsion (lecithin and MCT in water), aqueous with cosolvent or surfactant or cyclodextrin, vehicle % wt in water: lecithin 25, MCT 15, emulsion, opaque, pH 4.5-5, RT): 1400 µg/mL
- solubility ([5]; liposome (lecithin and alcohols in water), aqueous with cosolvent or surfactant or cyclodextrin, vehicle % wt in water: lecithin 25, benzyl alcohol 4.5, ethanol 6.5, liposome, hazy, pH 4.5-5, RT): 13700 µg/mL
- solubility ([5]; micelle solution (glycocholic acid and alcohols in water), aqueous with cosolvent or surfactant or cyclodextrin, vehicle % wt in water: glycocholic acid 10.6, benzyl alcohol 4.5, ethanol 6.5, micelle solution, hazy, pH 4.5-5, RT): 7600 µg/mL
- solubility ([5]; micelle solution (lecithin and glycocholic acid in water), aqueous with cosolvent or surfactant or cyclodextrin, vehicle % wt in water: lecithin 25, glycocholic acid 10.6, micelle solution, hazy, pH 4.5-5, RT): 7100 µg/mL
- pH at which most stable in an aqueous solution [6]: ~4
- solubility [2]: 20000 µg/mL (≈ 57.3 mM)
- solubility [3]: 8600 µg/mL (≈ 24.6 mM)

Compound: CC(=O)[C@H]1CC[C@H]2[C@@H]3CCC4=CC(=O)CC[C@]4(C)[C@H]3CC[C@]12C [Progesterone]
- Solubility according to USP definition [1]: Sparingly
- Reported solubility in water ([1]; water): 0.017 mg/mL
- solubility [2]: 12000 µg/mL (≈ 38.2 mM)
- solubility [3]: 4060 µg/mL (≈ 12.9 mM)

Compound: Casein
- Solubility according to USP definition [1]: Very poorly
- Reported solubility in water ([1]; water): 0.001-0.0001 mg/mL
- Measured solubility in 16% SBECD [3]: 150 µg/mL

Compound: CC[C@@]1(O)C(=O)OCc2c1cc1n(c2=O)Cc2cc3ccccc3nc2-1 [Camptothecin]
- Solubility according to USP definition [1]: Insoluble
- Reported solubility in water ([1]; water): <0.0001 mg/mL
- solubility [2]: 500 to 1000 µg/mL (≈ 1.44 to 2.87 mM)
- solubility [3]: 60 µg/mL (≈ 0.172 mM)

Compound: O=c1[nH]c(=O)c2[nH]c([O-])nc2[nH]1.[Na+] [Mono sodium urate]
- Solubility in PBS ([7]; phosphate buffered saline): <1 µg/mL
- Measured solubility in F96 LMBW Vehicle ([7]; vehicle at pH 7): 50 µg/mL

Compound: C[C@@H]1[C@H](O)[C@@H](C)/C=C/C=C/C=C/C=C/C=C/C=C/C=C/[C@H](O[C@@H]2O[C@H](C)[C@@H](O)[C@H](N)[C@@H]2O)C[C@@H]2O[C@](O)(C[C@@H](O)C[C@@H](O)[C@H](O)CC[C@@H](O)C[C@@H](O)CC(=O)O[C@H]1C)C[C@H](O)[C@H]2C(=O)O [Amphotericin]
- Solubility according to USP definition [1]: Insoluble
- Reported solubility in water ([1]; water): <0.0001 mg/mL
- solubility [2]: 2400 µg/mL (≈ 2.6 mM)
- solubility [3]: 70 µg/mL (≈ 0.0758 mM)

Compound: Cc1ccc(-c2cc(C(F)(F)F)nn2-c2ccc(S(N)(=O)=O)cc2)cc1 [Celecoxib]
- Solubility according to USP definition [1]: Very poorly
- Reported solubility in water ([1]; water): 0.001-0.0001 mg/mL
- solubility [2]: 7300 µg/mL (≈ 19.1 mM)
- solubility [3]: 1030 µg/mL (≈ 2.7 mM)

Compound: CC(C)CCC[C@@H](C)[C@H]1CC[C@H]2[C@@H]3CC=C4C[C@@H](O)CC[C@]4(C)[C@H]3CC[C@]12C [Cholesterol]
- solubility ([7]; F96 LMBW vehicle, aqueous with cosolvent or surfactant or cyclodextrin, vehicle at pH 7): 25000 µg/mL (≈ 64.7 mM)
- solubility ([7]; phosphate buffered saline, aqueous buffer, read-out: Solubility in PBS): 50 µg/mL (≈ 0.129 mM)

Compound: CC(C)c1cccc(C(C)C)c1O [Propofol]
- Solubility according to USP definition [1]: Insoluble
- Reported solubility in water ([1]; water): <0.0001 mg/mL
- solubility [2]: 50800 µg/mL (≈ 285 mM)
- solubility [3]: 56600 µg/mL (≈ 317 mM)

Compound: Oc1ccc(C=Cc2cc(O)cc(O)c2)cc1 [Resveratrol]
- Solubility according to USP definition [1]: Insoluble
- Reported solubility in water ([1]; water): <0.0001 mg/mL
- solubility [2]: 9000 µg/mL (≈ 39.4 mM)
- solubility [3]: 4850 µg/mL (≈ 21.2 mM)

Compound: CC[C@H]1OC(=O)[C@H](C)[C@@H](O[C@H]2C[C@@](C)(OC)[C@@H](O)[C@H](C)O2)[C@H](C)[C@@H](O[C@@H]2O[C@H](C)C[C@H](N(C)C)[C@H]2O)[C@](C)(OC)C[C@@H](C)C(=O)[C@H](C)[C@@H](O)[C@]1(C)O [Clarithromycin]
- Solubility according to USP definition [1]: Practically
- Reported solubility in water ([1]; water): <0.0001 mg/mL
- solubility [2]: 9100 µg/mL (≈ 12.2 mM)
- solubility [3]: 1710 µg/mL (≈ 2.29 mM)

Compound: CCC(C)n1ncn(-c2ccc(N3CCN(c4ccc(OCC5COC(Cn6cncn6)(c6ccc(Cl)cc6Cl)O5)cc4)CC3)cc2)c1=O (centres unmarked) [Intraconazole]
- Solubility according to USP definition [1]: Insoluble
- Reported solubility in water ([1]; water): <0.0001 mg/mL
- Measured solubility in F96 LMBW Vehicle ([2]; stepwise addition until no longer dissolving): 500 to 1000 µg/mL
- Measured solubility in 16% SBECD [3]: 170 µg/mL

Compound: C[C@@H](O[C@H]1OCCN(Cc2n[nH]c(=O)[nH]2)[C@H]1c1ccc(F)cc1)c1cc(C(F)(F)F)cc(C(F)(F)F)c1 [Aprepitant]
- Solubility according to USP definition [1]: Practically
- Reported solubility in water ([1]; water): <0.0001 mg/mL
- solubility [2]: 12700 µg/mL (≈ 23.8 mM)
- solubility [3]: 150 µg/mL (≈ 0.281 mM)

Compound: CC[C@@H]([C@H](C)O)n1ncn(-c2ccc(N3CCN(c4ccc(OC[C@@H]5CO[C@@](Cn6cncn6)(c6ccc(F)cc6F)C5)cc4)CC3)cc2)c1=O [Posaconazole]
- Solubility according to USP definition [1]: Insoluble
- Reported solubility in water ([1]; water): <0.0001 mg/mL
- solubility [2]: 500 µg/mL (≈ 0.713 mM)
- solubility [3]: 270 µg/mL (≈ 0.385 mM)

Compound: N[C@@H](Cc1ccc(O)c(O)c1)C(=O)O [Levodopa]
- Solubility according to USP definition [1]: Slightly soluble (100-1000)
- solubility [2]: 10000 µg/mL (≈ 50.7 mM)
- solubility [3]: 2130 µg/mL (≈ 10.8 mM)
